For this data set the following is noted: ether bond, 13-membered ring, 100.0 °C.

Where two headings read alike, the source gives them in different places.

Regarding `CCOC(=O)C[C@@H]1NC(=O)C(n2cc(CCN3CC(F)C3)c(C(F)(F)F)cc2=O)c2cc(ccc2F)Oc2cc(C(C)(C)O)cc(C)c2-c2cc(C)c(F)c1c2` (some centres unmarked), the ring closure, isolated yield (from CCOC(=O)C[C@H](NC(=O)C(c1cc(Br)ccc1F)n1cc(CCN2CC(F)C2)c(C(F)(F)F)cc1=O)c1cc(-c2c(C)cc(C(C)(C)O)cc2O)cc(C)c1F, CuI/(1R,2R)-N1,N2-dimethylcyclohexane-1,2-diamine/K2CO3, 1,4-dioxane, 40.0 mM, 16.0 h) was determined as 28.3%. As to `CCOC(=O)C[C@@H]1NC(=O)C(n2cc(CCN3CC(F)C3)c(C(F)(F)F)cc2=O)c2cc(ccc2F)Oc2cc(C(F)(F)F)cc(C)c2-c2cc(C)c(F)c1c2` (some centres unmarked), the ring closure, isolated yield (from CCOC(=O)C[C@H](NC(=O)C(c1cc(Br)ccc1F)n1cc(CCN2CC(F)C2)c(C(F)(F)F)cc1=O)c1cc(-c2c(C)cc(C(F)(F)F)cc2O)cc(C)c1F, CuI/K2CO3/(1R,2R)-N1,N2-dimethylcyclohexane-1,2-diamine, 1,4-dioxane, 30.0 mM, 16.0 h) was determined as 55%.

`CCOC(=O)C[C@@H]1NC(=O)C(n2cc(CCN3CC(F)C3)c(C(F)(F)F)cc2=O)c2cc(ccc2F)Oc2cc(C)cc(C)c2-c2cc(C)c(F)c1c2` (some centres unmarked): the ring closure, isolated yield (from CCOC(=O)C[C@H](NC(=O)C(c1cc(Br)ccc1F)n1cc(CCN2CC(F)C2)c(C(F)(F)F)cc1=O)c1cc(-c2c(C)cc(C)cc2O)cc(C)c1F, CuI/K2CO3/(1R,2R)-N1,N2-dimethylcyclohexane-1,2-diamine, dioxane, 66.0 mM, 16.0 h) turned out to be 49.3%. Where the note is “from CCOC(=O)C[C@H](NC(=O)C(c1cc(Br)ccc1F)n1cc(CCN2CC(F)C2)c(C(F)(F)F)cc1=O)c1cc(-c2c(C)cc(N3C4CCC3COC4)cc2O)cc(C)c1F, CuI/(1R,2R)-N1,N2-dimethylcyclohexane-1,2-diamine/K2CO3, dioxane, 27.5 mM, 16.0 h”, `CCOC(=O)C[C@@H]1NC(=O)C(n2cc(CCN3CC(F)C3)c(C(F)(F)F)cc2=O)c2cc(ccc2F)Oc2cc(N3C4CCC3COC4)cc(C)c2-c2cc(C)c(F)c1c2` (some centres unmarked) displayed a ring closure, isolated yield of 54.8%.

The compound `CCOC(=O)C[C@@H]1NC(=O)C(n2cc(CCN3CC(F)C3)c(C(F)(F)F)cc2=O)c2cc(ccc2F)Oc2cc(N3CC(OC)C3)cc(C)c2-c2cc(C)c(F)c1c2` (some centres unmarked) came in with a ring closure, isolated yield (from CCOC(=O)C[C@H](NC(=O)C(c1cc(Br)ccc1F)n1cc(CCN2CC(F)C2)c(C(F)(F)F)cc1=O)c1cc(-c2c(C)cc(N3CC(OC)C3)cc2O)cc(C)c1F, CuI/(1R,2R)-N1,N2-dimethylcyclohexane-1,2-diamine/K2CO3, 1,4-dioxane, 30.0 mM, 2.0 h) of 59.2%. `CCOC(=O)C[C@@H]1NC(=O)C(n2cc(CCN3CC(F)C3)c(C(F)(F)F)cc2=O)c2cc(ccc2F)Oc2ccc(F)cc2-c2cc(C)c(F)c1c2` (some centres unmarked) yielded a ring closure, isolated yield (from CCOC(=O)C[C@H](NC(=O)C(c1cc(Br)ccc1F)n1cc(CCN2CC(F)C2)c(C(F)(F)F)cc1=O)c1cc(-c2cc(F)ccc2O)cc(C)c1F, CuI/(1R,2R)-N1,N2-dimethylcyclohexane-1,2-diamine/K2CO3, dioxane, 95.0 mM, 3.0 h) of 54.4%.

In turn, `CCOC(=O)C[C@@H]1NC(=O)C(n2cc(CCN3CC(F)C3)c(C(F)(F)F)cc2=O)c2cc(ccc2F)Oc2cccc(C)c2-c2cc(C)c(F)c1c2` (some centres unmarked) yielded a ring closure, isolated yield (from CCOC(=O)C[C@H](NC(=O)C(c1cc(Br)ccc1F)n1cc(CCN2CC(F)C2)c(C(F)(F)F)cc1=O)c1cc(-c2c(C)cccc2O)cc(C)c1F, CuI/N1,N2-dimethylcyclohexane-1,2-diamine/K2CO3, dioxane, 18.7 mM, 16.0 h) of 72.5%. `CCOC(=O)C[C@@H]1NC(=O)C(n2cc(CCN3CC(F)C3)c(C(F)(F)F)cc2=O)c2cc(ccc2F)Oc2cccc(C)c2-c2cc1c(C)s2` (some centres unmarked): under “from CCOC(=O)C[C@H](NC(=O)C(c1cc(Br)ccc1F)n1cc(CCN2CC(F)C2)c(C(F)(F)F)cc1=O)c1cc(-c2c(C)cccc2O)sc1C, CuI/K2CO3/(1R,2R)-N1,N2-dimethylcyclohexane-1,2-diamine, dioxane, 26.0 mM”, the ring closure, isolated yield is 55.7%. For the compound `CCOC(=O)C[C@@H]1NC(=O)C(n2cc(CCN3CC(F)C3)c(C(F)(F)F)cc2=O)c2cccc(c2)Oc2cc(C(F)(F)F)cc(C)c2-c2cc1c(F)c(C(F)(F)F)c2` (some centres unmarked), for the setting “from CCOC(=O)C[C@H](NC(=O)C(c1cccc(Br)c1)n1cc(CCN2CC(F)C2)c(C(F)(F)F)cc1=O)c1cc(-c2c(C)cc(C(F)(F)F)cc2O)cc(C(F)(F)F)c1F, CuI/(1R,2R)-N1,N2-dimethylcyclohexane-1,2-diamine/K2CO3, dioxane, 22.0 mM, 16.0 h”, the ring closure, isolated yield was 38.4%.

As for `CCOC(=O)C[C@@H]1NC(=O)C(n2cc(CCN3CC(F)C3)c(C(F)(F)F)cc2=O)c2cccc(c2)Oc2cc(C)cc(C)c2-c2cc1c(F)c(C(F)(F)F)c2` (some centres unmarked), the ring closure, isolated yield (from CCOC(=O)C[C@H](NC(=O)C(c1cccc(Br)c1)n1cc(CCN2CC(F)C2)c(C(F)(F)F)cc1=O)c1cc(-c2c(C)cc(C)cc2O)cc(C(F)(F)F)c1F, CuI/(1R,2R)-N1,N2-dimethylcyclohexane-1,2-diamine/K2CO3, dioxane, 28.3 mM, 16.0 h) was 66.2%. Take `CCOC(=O)C[C@@H]1NC(=O)C(n2cc(CCN3CC(F)C3)c(C(F)(F)F)cc2=O)c2cccc(c2)Oc2cccc(C(F)(F)F)c2-c2cc1c(F)c(C(F)(F)F)c2` (some centres unmarked): the ring closure, isolated yield (from CCOC(=O)C[C@H](NC(=O)C(c1cccc(Br)c1)n1cc(CCN2CC(F)C2)c(C(F)(F)F)cc1=O)c1cc(-c2c(O)cccc2C(F)(F)F)cc(C(F)(F)F)c1F, CuI/N1,N2-dimethylcyclohexane-1,2-diamine/K2CO3, dioxane, 14.7 mM, 16.0 h) stood at 46.7%. Under “from CCOC(=O)C[C@H](NC(=O)C(c1cccc(Br)c1)n1cc(CCN2CC(F)C2)c(C(F)(F)F)cc1=O)c1cc(-c2c(C)cccc2O)cc(C2CC2)c1F, CuI/(1R,2R)-N1,N2-dimethylcyclohexane-1,2-diamine/K2CO3, dioxane, 26.1 mM, 16.0 h”, `CCOC(=O)C[C@@H]1NC(=O)C(n2cc(CCN3CC(F)C3)c(C(F)(F)F)cc2=O)c2cccc(c2)Oc2cccc(C)c2-c2cc(C3CC3)c(F)c1c2` (some centres unmarked) registered a ring closure, isolated yield of 82.3%.

Where the note is “from CCOC(=O)C[C@H](NC(=O)C(c1cccc(Br)c1)n1cc(CCN2CC(F)C2)c(C(F)(F)F)cc1=O)c1cc(-c2c(O)cccc2Cl)cc(C(F)(F)F)c1F, CuI/N1,N2-dimethylcyclohexane-1,2-diamine/K2CO3, dioxane, 15.3 mM, 16.0 h”, `CCOC(=O)C[C@@H]1NC(=O)C(n2cc(CCN3CC(F)C3)c(C(F)(F)F)cc2=O)c2cccc(c2)Oc2cccc(Cl)c2-c2cc1c(F)c(C(F)(F)F)c2` (some centres unmarked) gave a ring closure, isolated yield of 55.1%.

With `CCOC(=O)C[C@@H]1NC(=O)C(n2cc(CCN3CC(F)C3)cc(C)c2=O)c2cc(ccc2F)Oc2cccc(C)c2-c2cc(C)c(F)c1c2` (some centres unmarked), the ring closure, isolated yield (from CCOC(=O)C[C@H](NC(=O)C(c1cc(Br)ccc1F)n1cc(CCN2CC(F)C2)cc(C)c1=O)c1cc(-c2c(C)cccc2O)cc(C)c1F, CuI/K2CO3/(1R,2R)-N1,N2-dimethylcyclohexane-1,2-diamine, 1,4-dioxane, 20.0 mM, 16.0 h) was 70.9%. In turn, `CCOC(=O)C[C@@H]1NC(=O)C(n2cc(CCN3CCC(F)(F)CC3)c(C(F)(F)F)cc2=O)c2cc(ccc2F)Oc2cccc(C)c2-c2cc(C)c(F)c1c2` (some centres unmarked) returned a ring closure, isolated yield (from CCOC(=O)C[C@H](NC(=O)C(c1cc(Br)ccc1F)n1cc(CCN2CCC(F)(F)CC2)c(C(F)(F)F)cc1=O)c1cc(-c2c(C)cccc2O)cc(C)c1F, CuI/K2CO3/(1R,2R)-N1,N2-dimethylcyclohexane-1,2-diamine, 1,4-dioxane, 36.3 mM, 16.0 h) of 66.2%. For the compound `CCOC(=O)C[C@@H]1NC(=O)C(n2cc(CCOC)c(C(F)(F)F)cc2=O)c2cc(ccc2F)Oc2cccc(C)c2-c2cc(C)c(F)c1c2` (some centres unmarked), the ring closure, isolated yield (from CCOC(=O)C[C@H](NC(=O)C(c1cc(Br)ccc1F)n1cc(CCOC)c(C(F)(F)F)cc1=O)c1cc(-c2c(C)cccc2O)cc(C)c1F, CuI/K2CO3/(1R,2S)-N1,N2-dimethylcyclohexane-1,2-diamine, dioxane, 65.0 mM) was 27.9%. On to `CCOC(=O)C[C@@H]1NC(=O)C(n2ccc(C(F)(F)F)c(CC)c2=O)c2cc(ccc2F)Oc2cccc(C)c2-c2cc(C)c(F)c1c2` (some centres unmarked), for which the ring closure, isolated yield (from CCOC(=O)C[C@H](NC(=O)C(c1cc(Br)ccc1F)n1ccc(C(F)(F)F)c(CC)c1=O)c1cc(-c2c(C)cccc2O)cc(C)c1F, CuI/(1R,2R)-N,N'-dimethylcyclohexane-1,2-diamine/K2CO3, 1,4-dioxane, 20.0 mM, 16.0 h) was 56.1%.

Regarding `CCOC(=O)C[C@@H]1NC(=O)C(n2ccc(C(F)(F)F)c(OC)c2=O)c2cc(ccc2F)Oc2cccc(C)c2-c2cc(C)c(F)c1c2` (some centres unmarked), the ring closure, isolated yield (from CCOC(=O)C[C@H](NC(=O)C(c1cc(Br)ccc1F)n1ccc(C(F)(F)F)c(OC)c1=O)c1cc(-c2c(C)cccc2O)cc(C)c1F, CuI/(1S,2S)-N,N'-dimethylcyclohexane-1,2-diamine/K2CO3, 1,4-dioxane, 13.5 mM) stood at 67.3%. As for `CCOC(=O)C[C@@H]1NC(=O)C(n2ccc(C(F)(F)F)cc2=O)c2cc(ccc2F)Oc2cc(OC)cc(C)c2-c2cc(C)c(F)c1c2` (some centres unmarked), the ring closure, isolated yield (from CCOC(=O)C[C@H](NC(=O)C(c1cc(Br)ccc1F)n1ccc(C(F)(F)F)cc1=O)c1cc(-c2c(C)cc(OC)cc2O)cc(C)c1F, CuI/K2CO3/(1R,2R)-N1,N2-dimethylcyclohexane-1,2-diamine, 1,4-dioxane, 70.0 mM, 2.0 h) was 67.3%. Consider `CCOC(=O)C[C@@H]1NC(=O)C(n2ccc(C(F)(F)F)cc2=O)c2cc(ccc2F)Oc2cccc(C)c2-c2cc(C)c(F)c1c2` (some centres unmarked), for which, where the note is “from CCOC(=O)C[C@H](NC(=O)C(c1cc(Br)ccc1F)n1ccc(C(F)(F)F)cc1=O)c1cc(-c2c(C)cccc2O)cc(C)c1F, CuI/(1R,2R)-N1,N2-dimethylcyclohexane-1,2-diamine/K2CO3, 1,4-dioxane, 40.0 mM, 16.0 h”, the ring closure, isolated yield stood at 88.7%.

With `CCOC(=O)C[C@H](NC(=O)C(c1cc(Cl)cc(Br)c1)n1cc(CCN2CC(F)C2)c(C(F)(F)F)cc1=O)c1cc(-c2c(C)cccc2O)cc(C)c1F` (some centres unmarked), the ring closure, isolated yield (the molecule shown is the open-chain precursor, CuI/(1R,2R)-N1,N2-dimethylcyclohexane-1,2-diamine/K2CO3, dioxane, 15.0 mM) was found to be 66.5%. Regarding `CCOC(=O)C[C@H](NC(=O)C(c1cccc(Br)c1)n1cc(Cl)c(C(F)(F)F)cc1=O)c1cc(-c2c(C)cccc2O)cc(C(F)(F)F)c1F` (some centres unmarked), the ring closure, isolated yield (the molecule shown is the open-chain precursor, CuI/(1R,2R)-N1,N2-dimethylcyclohexane-1,2-diamine/K2CO3, 1,4-dioxane, 23.3 mM) was 71%. Where the note is “from COC(=O)C[C@H](NC(=O)C(c1cc(Br)ccc1F)n1ccc(C(F)(F)F)cc1=O)c1cn(-c2c(C)cccc2O)nc1C(F)(F)F, CuI/(1R,2R)-N,N'-dimethylcyclohexane-1,2-diamine/K2CO3, 1,4-dioxane, 65.0 mM, 2.0 h”, `COC(=O)C[C@@H]1NC(=O)C(n2ccc(C(F)(F)F)cc2=O)c2cc(ccc2F)Oc2cccc(C)c2-n2cc1c(C(F)(F)F)n2` (some centres unmarked) displayed a ring closure, isolated yield of 22.5%.

Values taken from patent publication US20240279214A1, “ALPHA4 BETA7 INEGRIN ANTAGONISTS AND USES THEREOF” (XinThera, Inc., priority 2022, published 2024).
